In data set [1] the target is T1, mineralocorticoid receptor (MR) (Rattus norvegicus, UniProt P22199).
T1 sequence (P22199 1-981): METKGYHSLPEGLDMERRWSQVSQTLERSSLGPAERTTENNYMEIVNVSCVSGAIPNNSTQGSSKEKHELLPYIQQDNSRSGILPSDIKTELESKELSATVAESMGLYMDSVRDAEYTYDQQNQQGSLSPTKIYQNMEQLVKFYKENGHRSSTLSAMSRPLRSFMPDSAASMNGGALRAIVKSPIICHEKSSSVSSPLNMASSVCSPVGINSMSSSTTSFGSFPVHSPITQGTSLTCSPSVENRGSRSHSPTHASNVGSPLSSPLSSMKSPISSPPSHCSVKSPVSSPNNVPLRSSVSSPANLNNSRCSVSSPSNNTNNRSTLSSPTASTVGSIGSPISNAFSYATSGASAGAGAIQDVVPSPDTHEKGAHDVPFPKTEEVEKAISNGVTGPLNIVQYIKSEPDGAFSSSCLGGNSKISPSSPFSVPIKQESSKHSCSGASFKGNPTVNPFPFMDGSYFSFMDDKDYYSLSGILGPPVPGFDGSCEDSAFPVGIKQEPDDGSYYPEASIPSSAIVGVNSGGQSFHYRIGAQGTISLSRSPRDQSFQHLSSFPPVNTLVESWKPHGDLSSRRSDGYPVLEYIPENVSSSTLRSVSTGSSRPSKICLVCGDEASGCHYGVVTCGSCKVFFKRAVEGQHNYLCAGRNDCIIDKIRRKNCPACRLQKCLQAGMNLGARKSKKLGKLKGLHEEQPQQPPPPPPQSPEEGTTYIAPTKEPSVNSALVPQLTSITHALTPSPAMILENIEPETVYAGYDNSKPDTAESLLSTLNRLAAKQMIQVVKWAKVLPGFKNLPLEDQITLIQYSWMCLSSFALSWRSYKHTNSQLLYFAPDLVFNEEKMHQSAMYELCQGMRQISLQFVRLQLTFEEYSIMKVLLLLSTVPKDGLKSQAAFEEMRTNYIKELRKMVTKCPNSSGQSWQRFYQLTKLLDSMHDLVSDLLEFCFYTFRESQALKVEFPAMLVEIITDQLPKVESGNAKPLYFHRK
As to the kind of experiment: In vitro binding to mineralocorticoid receptor (MR), displacement of tritiated aldosterone. Conditions: read-out: Mineralocorticoid receptor Antagonist activity IC50. The source says: In vitro binding to the mineralocorticoid receptor (MR) was essentially carried out as reported in the literature (C. E. Gomez-Sanchez and E. P. Gomez-Sanchez, Endocrinology 113 (1983) 1004-1009, Z. S. Krozowski and J. W. Funder, Proc. Natl. Acad. Sci. USA 80 (1983) 6056-; J. H. M. H. Reul and E. R. de Kloet, Endocrinology 117 (1985) 2505-2511; K. E. Sheppard and J. W. Funder, J. Steroid Biochem. 28 (1987) 737-742).
Male Wistar rats Were adrenalectomised and perfused with cold saline after 3 days of survival. Kidneys and hippocampi, respectively, were rapidly dissected and homogenized. A cylosolic fraction was prepared by centrifugation.
Unlabeled RU 28362 (10 nM), a specific GR binder, was added for saturating glucocorticoid receptors. Compounds to be tested, dissolved in DMF and diluted with water to obtain the required concentration, were added in an increasing concentration range (1.0-1000 nM) and allowed to incubate for 3 h. Incubations were terminated by adding dextran-coated charcoal suspension, followed by centrifugation. The supernatant was assayed with a scintillation counter for unbound labelled ligand.

Broadly, the IC50 is the concentration that inhibits the measured activity by half. As to `C=C(C)[C@H]1CC[C@H]2[C@@H]3CCC4=CC(=O)CC[C@]4(C)[C@H]3[C@@H](O)C[C@]12C` [synthetic example 1, (11β)-11-hydroxy-20-methylpregna-4,20-dien-3-one], the IC50 in data set [1] was 0.44 nM.

Take `CC(=O)S[C@@H]1CC2=CC(=O)CC[C@]2(C)[C@H]2CC[C@@]3(C)[C@@H](CC[C@@]34CCC(=O)O4)[C@H]12` [Spironolactone, reference compound]: the IC50 in data set [1] was 6 nM.

The melting point is the temperature, or range, at which the solid turns liquid. Compound `C=C(C)[C@H]1CC[C@H]2[C@@H]3C=CC4=CC(=O)CC[C@]4(C)[C@H]3[C@@H](O)C[C@]12C` displayed a melting point of 153 to 155 °C.

For the compound `CC[C@H]1CC[C@H]2[C@@H]3CCC4=CC(=O)C=C[C@]4(C)[C@H]3[C@@H](O)C[C@]12C` [synthetic example 14, (11β)-11-hydroxypregna-1,4-dien-3-one], the IC50 in data set [1] was determined as 0.12 nM.

With `C[C@]12C[C@H](O)[C@H]3[C@@H](CCC4=CC(=O)CC[C@@]43C)[C@@H]1CC[C@@H]2C(=O)CO` [Corticosterone, reference compound], in data set [1], the concentration for half-maximal inhibition (IC50) came to 5 nM.

These data come from patent US20100120736A1, “Mineralocorticoid Receptor Antagonists” (N.V. ORGANON, priority 2007, published 2010).
